This is an account of results in patent US20120135009A1, “Cleaved and Phosphorylated CRMP2 as Blood Marker of Inflammatory Diseases of the Central Nervous System” (priority 2009, published 2012).

The experiment concerns Jurkat T-cells. Kind of experiment: CRMP2 polarization in Jurkat cells adhering to collagen I-coated slides (immunofluorescence). The experiment is classed as cell-based. The protocol:
The CRMP2 forms, Yes kinase and intermediary filament vimentin were detected by indirect immunofluorescence on Jurkat and primary T-cells adhered to collagen I-coated slides (20 μg/ml) and fixed following treatment (acetone −20° C.; 10 min). Cells were incubated with specific antibody (1 h, 37° C.) then with Alexa 488- or 546-conjugated anti-mouse or anti-rabbit or anti-sheep IgG antibodies (1 h, 37° C.) and examined using the Axioplan II fluorescence microscope (Carl Zeiss). Nuclear counter-staining was performed using a fluorescent DNA intercalant, 4′, 6′-diamidino-2-phenylindole (DAPI, Boehringer Mannheim).
To define a link between chemokines and CRMP2, the inventors first examined the localization of CRMP2 in Jurkat T-cells under CXCL12 signaling. They used two different anti-CRMP2 antibodies (anti-C-ter and anti-pep4) that recognize the full-length and cleaved products of CRMP2. […] This phenomenon of CRMP2 polarization was still observed after 30 minutes of treatment. […] In addition CRMP2 distribution to the uropod was concomitant with the re-localization of vimentin, which was quickly redistributed at the trailing edge of polarizing T-cells.

On to `c1cc(CN2CCCNCCNCCCNCC2)ccc1CN1CCCNCCNCCCNCC1` [AMD3100], for which the “decrease of CXCL12-induced CRMP2 re-localization” value (Jurkat cells treated with CXCL12 (100 ng/mL) in the presence of AMD3100) stood at 35%.

As to “CXCL12: chemokine, stromal-derived-factor-1, ligand of the CXCR4 receptor”, the “increase of cells with polarized (asymmetrical) CRMP2 distribution” value (CXCL12 100 ng/mL, 2, 5 or 10 min, versus un-treated Jurkat T-cells) fell in the range of 1.6 to 2 fold.
